Nine compounds from patent publication US20220259252A1, “4'-ETHYNYL-2'-DEOXYADENOSINE DERIVATIVES AND THEIR USE IN HIV THERAPY” (priority 2019, published 2022) can be followed below.

The structures appear in SMILES notation.

In assay [1] the test system is HIV pseudotyped virus (NL4-3 provirus, luciferase reporter), WT, in U373 cells expressing human CD4 and CXCR4 or CCR5. The assay is described as follows: Pseudotyped virus (PSV) assay, WT. Particulars: Human immunodeficiency virus 1, NL43, U373 MG, 72 h, read-out: WT IC50.
Excerpt: A pseudotyped virus assay (PSV) was used to assess the potency of the HIV inhibitor. Replication defective virus was produced by co-transfection of a plasmid containing an NL4-3 provirus [containing a mutation in the envelope open reading frame (ORF) and a luciferase reporter gene replacing the nef ORF] and a CMV-promoter expression plasmid containing an ORF for various HIV gp160 envelope clones. The harvested virus was stored at −80 C in small aliquots and the titer of the virus measured to produce a robust signal for antiviral assays.
The PSV assay was performed by using U373 cells stably transformed to express human CD4, the primary receptor for HIV entry and either human CXCR4 or human CCR5 which are the co-receptors required for HIV entry as target cells for infection. […] This dose-range was applied to U373 cells and the pre-made pseudotyped virus added. The amount of luciferase signal produced after 3 days of culture was used to reflect the level of pseudotyped virus infection. An IC50, or the concentration of inhibitor required to reduce PSV infection by 50% from the infection containing no inhibitor was calculated. […] IC50 values were determined from a 10 point dose response curve using 3-4-fold serial dilution for each compound, which spans a concentration range >1000 fold.
These values are plotted against the molar compound concentrations using the standard four parameter logistic equation:
y=((V max*x^n)/(K^n+x^n)+Y2
Y2=minimum y n=slope factor
Vmax=maximum y x=compound concentration [M]
In assay [2] the test system is HIV pseudotyped virus (NL4-3 provirus, luciferase reporter), M184V, in U373 cells expressing human CD4 and CXCR4 or CCR5. It is filed as cell-based. To be noted: PSV assay, luciferase signal after 3 days.

`C#C[C@]1(CO)O[C@@H](n2cnc3c(N)nc(F)nc32)C[C@@H]1OC(=O)COCCOC` [Example 4, (2R,3S,5R)-5-(6-amino-2-fluoro-9H-purin-9-yl)-2-ethynyl-2-(hydroxymethyl)tetrahydrofuran-3-yl 2-(2-methoxyethoxy)acetate]: the IC50 in assay [1] came out at 3.8 nM; in assay [2], 25.9 nM.
On the same counts, the results for `C#C[C@]1(CO)O[C@@H](n2cnc3c(N)nc(F)nc32)C[C@@H]1OC(=O)CCCCCCCCCCCCCCCCCCC(=O)O` [Example 2, 20-(((2R,3S,5R)-5-(6-amino-2-fluoro-9H-purin-9-yl)-2-ethynyl-2-(hydroxymethyl)tetrahydrofuran-3-yl)oxy)-20-oxoicosanoic Acid] are 6.4 nM and 35.7 nM.
For the compound `C#C[C@]1(CO)O[C@@H](n2cnc3c(N)nc(F)nc32)C[C@@H]1OC(=O)CNC(=O)CCCCCC` [Example 6, (2R,3S,5R)-5-(6-amino-2-fluoro-9H-purin-9-yl)-2-ethynyl-2-(hydroxymethyl)tetrahydrofuran-3-yl heptanoylglycinate], the IC50 came to 2.2 nM in assay [1] and 11.4 nM in assay [2].
On the same counts, the results for `C#C[C@]1(CO)O[C@@H](n2cnc3c(N)nc(F)nc32)C[C@@H]1OC(=O)CCCCCCCCCCCCC(=O)O` [Example 3, 14-(((2R,3S,5R)-5-(6-amino-2-fluoro-9H-purin-9-yl)-2-ethynyl-2-(hydroxymethyl)tetrahydrofuran-3-yl)oxy)-14-oxotetradecanoic Acid] are 5.4 nM and 24.4 nM.
The corresponding values for `C#C[C@]1(CO)O[C@@H](n2cnc3c(N)nc(F)nc32)C[C@@H]1O` [EFdA, 4′-ethynyl-2-fluoro-2′-deoxyadenosine, reference compound] are 6.5 nM and 35.1 nM.
On the same counts, the results for `C#C[C@]1(CO)O[C@@H](n2cnc3c(N)nc(F)nc32)C[C@@H]1OC(=O)CCCC(=O)OC(COC(=O)CCCCCCCCCCCCC)COC(=O)CCCCCCCCCCCCC` [Example 8, (2R,3S,5R)-5-(6-amino-2-fluoro-9H-purin-9-yl)-2-ethynyl-2-(hydroxymethyl)tetrahydrofuran-3-yl (1,3-bis(tetradecanoyloxy)propan-2-yl) glutarate] are 1860 nM and 15000 nM.
Turning to `C#C[C@]1(CO)O[C@@H](n2cnc3c(N)nc(F)nc32)C[C@@H]1OC(=O)CCCC(=O)OC(COC(=O)CCCCCC)COC(=O)CCCCCC` [Example 7, (2R,3S,5R)-5-(6-amino-2-fluoro-9H-purin-9-yl)-2-ethynyl-2-(hydroxymethyl)tetrahydrofuran-3-yl (1,3-bis(heptanoyloxy)propan-2-yl) glutarate], the IC50 is 232 nM in assay [1] and 1190 nM in assay [2].
The corresponding values for `C#C[C@]1(CO)O[C@@H](n2cnc3c(N)nc(F)nc32)C[C@@H]1OC(=O)CCCCCCCCC(=O)O` [Example 1, 10-(((2R,3S,5R)-5-(6-amino-2-fluoro-9H-purin-9-yl)-2-ethynyl-2-(hydroxymethyl)tetrahydrofuran-3-yl)oxy)-10-oxodecanoic Acid] are 78.4 nM and 348 nM.
The corresponding values for `C#C[C@]1(CO)O[C@@H](n2cnc3c(N)nc(F)nc32)C[C@@H]1OC(=O)COCCOCCOC` [Example 5, (2R,3S,5R)-5-(6-amino-2-fluoro-9H-purin-9-yl)-2-ethynyl-2-(hydroxymethyl)tetrahydrofuran-3-yl 2-(2-(2-methoxyethoxy)ethoxy)acetate] are 5.5 nM and 22.1 nM.
